Entries after “also recorded” stand apart in the source; their conditions may differ. Like-named read-outs stand apart in the source and are kept apart here.
Columns and labels:
CYP1A2 [1] = conditions: coadministration of potent CYP1A2 inhibitor; cited from earlier work
CYP1A2 [2] = target: T1, CYP1A2 (Homo sapiens, UniProt P05177); test: In vivo CYP1A2 activity from plasma paraxanthine/caffeine metabolic ratio
T1 sequence (P05177 1-516): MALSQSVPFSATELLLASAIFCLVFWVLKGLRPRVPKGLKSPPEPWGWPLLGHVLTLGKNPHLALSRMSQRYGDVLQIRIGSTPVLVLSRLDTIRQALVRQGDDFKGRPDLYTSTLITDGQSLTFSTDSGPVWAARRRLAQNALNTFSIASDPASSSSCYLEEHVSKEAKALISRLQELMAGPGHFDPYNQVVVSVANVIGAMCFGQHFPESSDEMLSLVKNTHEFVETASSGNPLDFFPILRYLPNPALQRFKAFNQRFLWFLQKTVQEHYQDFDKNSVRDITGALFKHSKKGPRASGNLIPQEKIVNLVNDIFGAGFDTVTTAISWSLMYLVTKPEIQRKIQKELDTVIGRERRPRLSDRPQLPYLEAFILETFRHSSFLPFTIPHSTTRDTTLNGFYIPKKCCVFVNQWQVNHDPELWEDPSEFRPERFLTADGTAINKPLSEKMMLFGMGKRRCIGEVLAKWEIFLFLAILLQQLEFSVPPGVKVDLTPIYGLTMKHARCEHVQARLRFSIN

CYP1A2 [3] = target: T1, CYP1A2; test: In vivo CYP1A2 activity from urinary caffeine metabolic ratio
CYP2A6 [4] = test: In vivo CYP2A6 activity from urinary caffeine metabolic ratio; set-up: species or system human
xanthine oxidase (XO) = xanthine oxidase (XO) (Homo sapiens, UniProt P47989); test: In vivo xanthine oxidase activity from urinary caffeine metabolic ratio; conditions: for XO activity, urinary MR (1 MU)/(1 MX + 1 MU): mean ± SD
Chain of xanthine oxidase (XO) (P47989 whole entry): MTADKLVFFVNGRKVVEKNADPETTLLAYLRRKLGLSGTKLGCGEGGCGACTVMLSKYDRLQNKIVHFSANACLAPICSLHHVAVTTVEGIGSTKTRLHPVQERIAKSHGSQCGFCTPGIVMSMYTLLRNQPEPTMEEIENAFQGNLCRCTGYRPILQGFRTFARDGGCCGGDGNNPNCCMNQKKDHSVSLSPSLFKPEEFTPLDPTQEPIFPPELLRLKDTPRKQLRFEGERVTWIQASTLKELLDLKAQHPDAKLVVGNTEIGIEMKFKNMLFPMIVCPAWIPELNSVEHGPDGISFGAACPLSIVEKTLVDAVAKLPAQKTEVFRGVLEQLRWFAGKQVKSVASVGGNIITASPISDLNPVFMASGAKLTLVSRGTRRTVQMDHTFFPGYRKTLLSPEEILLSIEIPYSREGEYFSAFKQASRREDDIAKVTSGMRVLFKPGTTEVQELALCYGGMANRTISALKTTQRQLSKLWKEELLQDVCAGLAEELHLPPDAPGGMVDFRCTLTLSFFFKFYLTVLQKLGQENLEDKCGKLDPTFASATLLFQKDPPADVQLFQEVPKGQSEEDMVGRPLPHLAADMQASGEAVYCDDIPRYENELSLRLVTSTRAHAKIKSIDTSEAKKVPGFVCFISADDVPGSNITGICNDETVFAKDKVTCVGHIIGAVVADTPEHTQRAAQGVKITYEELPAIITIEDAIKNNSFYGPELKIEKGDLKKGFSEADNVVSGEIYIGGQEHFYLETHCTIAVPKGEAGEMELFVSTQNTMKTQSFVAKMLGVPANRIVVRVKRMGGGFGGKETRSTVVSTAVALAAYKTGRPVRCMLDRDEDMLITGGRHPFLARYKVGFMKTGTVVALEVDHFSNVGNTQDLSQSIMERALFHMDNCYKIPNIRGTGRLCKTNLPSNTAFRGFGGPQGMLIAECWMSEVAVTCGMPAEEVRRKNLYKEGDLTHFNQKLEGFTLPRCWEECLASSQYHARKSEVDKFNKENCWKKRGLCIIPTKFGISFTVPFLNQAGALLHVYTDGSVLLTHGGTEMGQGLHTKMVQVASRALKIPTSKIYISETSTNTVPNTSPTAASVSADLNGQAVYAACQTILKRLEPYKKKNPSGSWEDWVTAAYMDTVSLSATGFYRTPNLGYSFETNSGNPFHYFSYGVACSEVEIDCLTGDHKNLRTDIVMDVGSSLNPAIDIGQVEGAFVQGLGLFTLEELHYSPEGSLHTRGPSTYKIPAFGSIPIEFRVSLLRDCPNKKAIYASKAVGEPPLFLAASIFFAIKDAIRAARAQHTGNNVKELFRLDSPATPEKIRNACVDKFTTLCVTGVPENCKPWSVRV

[5] = target: T2, N‐acetyltransferase 2 (NAT2) (Homo sapiens, UniProt P11245); test: In vivo NAT2 activity from urinary caffeine metabolic ratio; conditions: for NAT2 activity, urinary MR AFMU/(AFMU + 1 MU + 1 MX): mean ± SD
T2 sequence (P11245 1-290): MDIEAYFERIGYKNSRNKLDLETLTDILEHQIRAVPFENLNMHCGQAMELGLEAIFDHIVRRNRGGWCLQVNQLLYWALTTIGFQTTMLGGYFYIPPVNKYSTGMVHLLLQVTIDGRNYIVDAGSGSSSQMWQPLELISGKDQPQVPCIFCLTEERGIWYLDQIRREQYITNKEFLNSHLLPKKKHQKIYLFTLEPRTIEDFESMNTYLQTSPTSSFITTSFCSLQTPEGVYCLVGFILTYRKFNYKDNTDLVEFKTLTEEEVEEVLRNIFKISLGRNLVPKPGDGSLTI

[6] = cited from earlier work
CYP1A2 [7] = target: T1, CYP1A2; conditions: human liver microsomal preparations and/or expressed enzymes; cited from earlier work
CYP2A6 [8] = conditions: human liver microsomal preparations and/or expressed enzymes; cited from earlier work
CYP2B6 = conditions: at therapeutically relevant concentrations; cited from earlier work
CYP2C8 = conditions: at therapeutically relevant concentrations; cited from earlier work
CYP2C19 = conditions: at therapeutically relevant concentrations; cited from earlier work
CYP2C9 = conditions: at therapeutically relevant concentrations; cited from earlier work
[9] = HIV/tuberculosis‐coinfected patients, cited from earlier work
[10] = Efavirenz plasma exposure in healthy volunteers, also by CYP2B6 genotype; conditions: following a single dose and multiple doses of efavirenz
[11] = assay type: in vivo, human; conditions: for AUC(0-inf) / Cmax / Tmax / half-life: human, plasma, po; for AUC0–∞, mean percent change / Cmax, mean percent change / t1/2, mean percent change: multiple doses vs single dose of efavirenz
[12] = after multiple doses of efavirenz
[13] = chronic efavirenz relative to single‐dose phase
[14] = multiple doses vs single dose of efavirenz
[15] = multiple doses relative to single‐dose efavirenz
[16] = multiple doses of efavirenz (600 mg/day, 17 days)

## COCCCC/C(=N\OCCN)c1ccc(C(F)(F)F)cc1 [fluvoxamine]
CYP1A2 [1]
  Increase of plasma exposure of tizanidine: up to 30 fold

## O=C1Nc2ccc(Cl)cc2[C@@](C#CC2CC2)(C(F)(F)F)O1 [efavirenz]
CYP1A2 [2]; [12]
  Correlation (r s) of CYP1A2 activity with efavirenz AUC0–24 h: −0.61
  Correlation (r s) of percent change in CYP1A2 activity with efavirenz AUC0–24 h: −0.41
CYP1A2 [2]; [13]
  Decrease of CYP1A2 activity (plasma MRs): 38%
CYP1A2 [2]; chronic efavirenz relative to single‐dose phase, 58 subjects
  Interindividual range of percent change in CYP1A2 activity (plasma MRs): −78.2% to 31.7
CYP1A2 [2]; [14]
  CYP1A2 activity, plasma MR, mean percent change: −38.1%
CYP1A2 [2]; single 600 mg dose of efavirenz
  Correlation (r s) of CYP1A2 activity with efavirenz AUC0–∞: −0.32
CYP1A2 [3]; [13]
  Decrease of CYP1A2 activity measured by urinary MRs: 28.9%
  Interindividual range of percent change in urine MR (CYP1A2): −65.1% to 43.2
CYP1A2 [3]; [14]
  CYP1A2 activity, urinary MR, mean percent change: −28.9%
CYP2A6 [4]; [15]
  Increase of CYP2A6 activity: 85%
CYP2A6 [4]; [14]
  CYP2A6 activity, urinary MR, mean percent change: 85.5%
Xanthine oxidase (XO); [16]
  XO activity, urinary MR (1 MU)/(1 MX + 1 MU): 0.37 ± 0.16
Xanthine oxidase (XO); [15]
  Effect on XO activity (urinary MR), in words: unaffected; also recorded: not significantly altered
Xanthine oxidase (XO); [14]
  XO activity, urinary MR, mean percent change: 1.1%
Xanthine oxidase (XO); single 600 mg efavirenz dose
  XO activity, urinary MR (1 MU)/(1 MX + 1 MU): 0.37 ± 0.16
[5]; [16]
  NAT2 activity, urinary MR AFMU/(AFMU + 1 MU + 1 MX): 0.32 ± 0.22
[5]; [15]
  Effect on NAT2 activity (urinary MR), in words: unaffected; also recorded: not significantly altered
[5]; [14]
  NAT2 activity, urinary MR, mean percent change: 4.5%
[5]; single 600 mg efavirenz dose
  NAT2 activity, urinary MR AFMU/(AFMU + 1 MU + 1 MX): 0.31 ± 0.21
[6]; multiple doses of efavirenz
  Efavirenz exposure (AUC0–24), fold higher in CYP2B6*6/*6 vs CYP2B6*1/*1: 2.5 fold
  Efavirenz exposure (AUC0–24), fold higher in CYP2B6*6/*6 vs CYP2B6*1/*6: 2 fold
[6]; single dose of efavirenz
  Efavirenz exposure (AUC0–∞), fold higher in CYP2B6*6/*6 vs CYP2B6*1/*1: 2.1 fold
  Efavirenz exposure (AUC0–∞), fold higher in CYP2B6*6/*6 vs CYP2B6*1/*6: 1.8 fold
CYP1A2 [7]
  Inhibition/inactivation of CYP1A2 activity in vitro, in words: does not inhibit/inactivate; also recorded: neither a reversible inhibitor nor a mechanism‐based (i.e., time‐dependent) inactivator
CYP2A6 [8]
  Inhibition/inactivation of CYP2A6 activity in vitro, in words: does not inhibit/inactivate
CYP2B6
  Inhibition of CYP2B6 in vitro, in words: directly inhibits
CYP2C8
  Inhibition of CYP2C8 in vitro, in words: directly inhibits
CYP2C19
  Inhibition of CYP2C19 in vitro, in words: directly inhibits
CYP2C9
  Inhibition of CYP2C9 in vitro, in words: directly inhibits
[9]; fast acetylators
  Reduction of model‐predicted exposure of isoniazid by efavirenz: 29%
[9]; slow acetylators
  Effect of efavirenz on model‐predicted exposure of isoniazid, in words: no effect
[10]
  Between‐subject differences in efavirenz exposure: Approximately sevenfold

## Cn1c(=O)c2c(ncn2C)n(C)c1=O [Caffeine]
[11]; both efavirenz treatment groups, compared with *1/*1 genotype
  Caffeine AUC0‐∞ by CYP2B6 genotype, in words: significantly higher for *6/*6 genotype
[11]
  AUC(0-inf): 17300 ± 11600 ng·h/mL
  Cmax: 1820 ng/mL
  Tmax: 1 h
  half-life: 7.61 ± 8.29 h
  AUC0–∞, mean percent change: 46.2%
  Cmax, mean percent change: 17.4%
  t1/2, mean percent change: 32.5%
[11]; 150 mg
  AUC(0-inf): 22700 ± 18400 ng·h/mL
  Cmax: 1900 ng/mL
  Tmax: 1 h
  half-life: 8.87 ± 4.98 h

## Cn1c(=O)[nH]c2ncn(C)c2c1=O [Paraxanthine, 1,7‐dimethylxanthine]
[11]
  AUC(0-inf): 10800 ± 6100 ng·h/mL
  Cmax: 504 ± 236 ng/mL
  Tmax: 7 h
  half-life: 10.8 ± 9.21 h
  AUC0–∞, mean percent change: −8.6%
  Cmax, mean percent change: −24.5%
  t1/2, mean percent change: 26.3%
[11]; 150 mg
  AUC(0-inf): 8600 ± 5800 ng·h/mL
  Cmax: 358 ± 208 ng/mL
  Tmax: 7 h
  half-life: 12.2 ± 7.88 h

## O=C1Nc2c(O)cc(Cl)cc2[C@@](C#CC2CC2)(C(F)(F)F)O1 [8‐hydroxyefavirenz]
CYP1A2 [7]
  Inhibition/inactivation of CYP1A2 activity in vitro, in words: no effect
